Key:
Type in all cases: cell-based
[1] = target: T1, Broad substrate specificity ATP-binding cassette transporter ABCG2 (Homo sapiens, UniProt Q9UNQ0); assay: (§1) Inhibition of ABCG2 (unknown origin) transfected in Flp-In-293 cells assessed as inhibition of Hoechst 33342 efflux after 90 mins by flow cytometry; conditions: 1.5 h
T1 sequence (Q9UNQ0 whole entry): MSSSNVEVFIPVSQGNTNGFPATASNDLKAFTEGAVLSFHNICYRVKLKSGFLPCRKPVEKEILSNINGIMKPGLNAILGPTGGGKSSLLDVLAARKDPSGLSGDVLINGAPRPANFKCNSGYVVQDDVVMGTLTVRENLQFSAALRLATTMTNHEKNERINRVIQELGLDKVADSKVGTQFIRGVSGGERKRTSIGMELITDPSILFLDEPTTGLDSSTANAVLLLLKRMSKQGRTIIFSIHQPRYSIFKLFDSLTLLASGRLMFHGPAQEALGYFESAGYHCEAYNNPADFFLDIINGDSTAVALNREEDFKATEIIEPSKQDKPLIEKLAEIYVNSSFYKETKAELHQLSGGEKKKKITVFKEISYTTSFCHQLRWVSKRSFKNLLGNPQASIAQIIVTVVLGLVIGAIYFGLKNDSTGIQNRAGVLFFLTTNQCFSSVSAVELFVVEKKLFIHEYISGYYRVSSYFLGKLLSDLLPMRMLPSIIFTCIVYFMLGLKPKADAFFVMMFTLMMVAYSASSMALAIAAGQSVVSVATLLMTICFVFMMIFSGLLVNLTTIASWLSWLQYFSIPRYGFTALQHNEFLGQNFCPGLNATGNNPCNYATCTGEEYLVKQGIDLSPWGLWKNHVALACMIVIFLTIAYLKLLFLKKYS

ABCG2 [2] = target: T2, ABCG2 (Homo sapiens, UniProt Q9UNQ0); assay: Inhibition of ABCG2 (unknown origin) transfected in Flp-In-293 cells assessed as inhibition of Hoechst 33342 efflux measured as inhibition ratio after 90 mins by flow cytometry; parameters: concentration or dose not given beside the values; conditions: Flp-In-293 cells transfected with ABCG2, probe Hoechst 33342
T2 sequence (Q9UNQ0 whole entry): T1 sequence (Q9UNQ0 whole entry)

ABCG2 [3] = target: T2, ABCG2; assay: as §1; conditions: Flp-In-293 cells transfected with ABCG2, probe Hoechst 33342

SMILES	inhibition (INH) [1]	inhibition at 1.5 h (ABCG2 [2])	inhibition at 1.5 h (ABCG2 [3])
C=CC(C)(C)[C@@]12C[C@H]3c4nc5ccccc5c(=O)n4[C@H](C)C(=O)N3[C@@H]1N(C(C)=O)c1ccc(-c3ccc(C#N)cc3)cc12	Active		
C=CC(C)(C)[C@@]12C[C@H]3c4nc5ccc(OC)cc5c(=O)n4[C@H](C)C(=O)N3[C@@H]1N(C(C)=O)c1ccccc12	Active		
C=CC(C)(C)[C@@]12C[C@H]3c4nc5ccccc5c(=O)n4[C@H](C)C(=O)N3[C@@H]1N(C(C)=O)c1ccccc12		21.8%	
C=CC(C)(C)[C@@]12C[C@H]3c4nc5cc(Br)ccc5c(=O)n4[C@H](C)C(=O)N3[C@@H]1N(C(C)=O)c1ccccc12	Active		
C=CC(C)(C)[C@@]12C[C@H]3c4nc5ccccc5c(=O)n4[C@H](C)C(=O)N3[C@@H]1N(C(C)=O)c1ccc(C3CCCCC3)cc12	Active		
C=CC(C)(C)[C@@]12C[C@H]3c4nc5ccc(C#N)cc5c(=O)n4[C@H](C)C(=O)N3[C@@H]1N(C(C)=O)c1ccccc12	Active		
C=CC(C)(C)[C@@]12C[C@H]3c4nc5ccccc5c(=O)n4[C@H](C)C(=O)N3[C@@H]1N(C(C)=O)c1ccc(Br)cc12	Active		
C=CC(C)(C)[C@@]12C[C@H]3c4nc5ccccc5c(=O)n4[C@H](C)C(=O)N3[C@@H]1N(C(C)=O)c1ccc(-c3ccc(OC)cc3)cc12	Active		
C=CC(C)(C)[C@]12C[C@@H](C(=O)Nc3ccccc3C(=O)OC)N(C(=O)[C@@H](C)NC(=O)OC(C)(C)C)[C@H]1N(C(C)=O)c1ccccc12			27.5%

Now from value to molecule:

inhibition (INH) [1]	inhibition at 1.5 h (ABCG2 [2])	inhibition at 1.5 h (ABCG2 [3])	SMILES
Active			C=CC(C)(C)[C@@]12C[C@H]3c4nc5ccccc5c(=O)n4[C@H](C)C(=O)N3[C@@H]1N(C(C)=O)c1ccc(-c3ccc(-c4ccccc4)cc3)cc12
Active	66.8%		C=CC(C)(C)[C@@]12C[C@H]3c4nc5ccc(Cl)cc5c(=O)n4[C@H](C)C(=O)N3[C@@H]1N(C(C)=O)c1ccccc12
Active	34.6%		C=CC(C)(C)[C@@]12C[C@H]3c4nc5ccc(F)cc5c(=O)n4[C@H](C)C(=O)N3[C@@H]1N(C(C)=O)c1ccccc12
Active			C=CC(C)(C)[C@@]12C[C@H]3c4nc5ccccc5c(=O)n4[C@H](C)C(=O)N3[C@@H]1N(C(C)=O)c1ccc(-c3ccccc3)cc12
Active			C=CC(C)(C)[C@@]12C[C@H]3c4nc5ccc(-c6ccccc6)cc5c(=O)n4[C@H](C)C(=O)N3[C@@H]1N(C(C)=O)c1ccccc12
Active	64.5%		C=CC(C)(C)[C@@]12C[C@H]3c4nc5ccc(Br)cc5c(=O)n4[C@H](C)C(=O)N3[C@@H]1N(C(C)=O)c1ccccc12
Active			C=CC(C)(C)[C@@]12C[C@H]3c4nc5ccccc5c(=O)n4[C@H](C)C(=O)N3[C@@H]1N(C(C)=O)c1ccc(-c3ccc(C)cc3)cc12
Active	35.4%		C=CC(C)(C)[C@@]12C[C@H]3c4nc5ccc(I)cc5c(=O)n4[C@H](C)C(=O)N3[C@@H]1N(C(C)=O)c1ccccc12

From ChEMBL document CHEMBL3400045, “Synthesis and ABCG2 inhibitory evaluation of 5-N-acetylardeemin derivatives” (Bioorg Med Chem, 2015)
